{"source": "paper PMC12281424", "about": "“A Rac-specific competitive inhibitor of guanine nucleotide binding reduces metastasis in triple-negative breast cancer” (Cell Reports Medicine, 2025)", "key": {"DAPK1(h)": {"target": "DAPK1(h) (Homo sapiens, UniProt P53355)", "assay": "Kinase Profiler", "type": "biochemical", "experimental": "(§1) The kinase profiler was performed by the company Eurofins (Discovery, Panlab and Cerep)."}, "Ros(h)": {"target": "Ros(h) (Homo sapiens, UniProt P08922)", "sequence (P08922 28-2347)": "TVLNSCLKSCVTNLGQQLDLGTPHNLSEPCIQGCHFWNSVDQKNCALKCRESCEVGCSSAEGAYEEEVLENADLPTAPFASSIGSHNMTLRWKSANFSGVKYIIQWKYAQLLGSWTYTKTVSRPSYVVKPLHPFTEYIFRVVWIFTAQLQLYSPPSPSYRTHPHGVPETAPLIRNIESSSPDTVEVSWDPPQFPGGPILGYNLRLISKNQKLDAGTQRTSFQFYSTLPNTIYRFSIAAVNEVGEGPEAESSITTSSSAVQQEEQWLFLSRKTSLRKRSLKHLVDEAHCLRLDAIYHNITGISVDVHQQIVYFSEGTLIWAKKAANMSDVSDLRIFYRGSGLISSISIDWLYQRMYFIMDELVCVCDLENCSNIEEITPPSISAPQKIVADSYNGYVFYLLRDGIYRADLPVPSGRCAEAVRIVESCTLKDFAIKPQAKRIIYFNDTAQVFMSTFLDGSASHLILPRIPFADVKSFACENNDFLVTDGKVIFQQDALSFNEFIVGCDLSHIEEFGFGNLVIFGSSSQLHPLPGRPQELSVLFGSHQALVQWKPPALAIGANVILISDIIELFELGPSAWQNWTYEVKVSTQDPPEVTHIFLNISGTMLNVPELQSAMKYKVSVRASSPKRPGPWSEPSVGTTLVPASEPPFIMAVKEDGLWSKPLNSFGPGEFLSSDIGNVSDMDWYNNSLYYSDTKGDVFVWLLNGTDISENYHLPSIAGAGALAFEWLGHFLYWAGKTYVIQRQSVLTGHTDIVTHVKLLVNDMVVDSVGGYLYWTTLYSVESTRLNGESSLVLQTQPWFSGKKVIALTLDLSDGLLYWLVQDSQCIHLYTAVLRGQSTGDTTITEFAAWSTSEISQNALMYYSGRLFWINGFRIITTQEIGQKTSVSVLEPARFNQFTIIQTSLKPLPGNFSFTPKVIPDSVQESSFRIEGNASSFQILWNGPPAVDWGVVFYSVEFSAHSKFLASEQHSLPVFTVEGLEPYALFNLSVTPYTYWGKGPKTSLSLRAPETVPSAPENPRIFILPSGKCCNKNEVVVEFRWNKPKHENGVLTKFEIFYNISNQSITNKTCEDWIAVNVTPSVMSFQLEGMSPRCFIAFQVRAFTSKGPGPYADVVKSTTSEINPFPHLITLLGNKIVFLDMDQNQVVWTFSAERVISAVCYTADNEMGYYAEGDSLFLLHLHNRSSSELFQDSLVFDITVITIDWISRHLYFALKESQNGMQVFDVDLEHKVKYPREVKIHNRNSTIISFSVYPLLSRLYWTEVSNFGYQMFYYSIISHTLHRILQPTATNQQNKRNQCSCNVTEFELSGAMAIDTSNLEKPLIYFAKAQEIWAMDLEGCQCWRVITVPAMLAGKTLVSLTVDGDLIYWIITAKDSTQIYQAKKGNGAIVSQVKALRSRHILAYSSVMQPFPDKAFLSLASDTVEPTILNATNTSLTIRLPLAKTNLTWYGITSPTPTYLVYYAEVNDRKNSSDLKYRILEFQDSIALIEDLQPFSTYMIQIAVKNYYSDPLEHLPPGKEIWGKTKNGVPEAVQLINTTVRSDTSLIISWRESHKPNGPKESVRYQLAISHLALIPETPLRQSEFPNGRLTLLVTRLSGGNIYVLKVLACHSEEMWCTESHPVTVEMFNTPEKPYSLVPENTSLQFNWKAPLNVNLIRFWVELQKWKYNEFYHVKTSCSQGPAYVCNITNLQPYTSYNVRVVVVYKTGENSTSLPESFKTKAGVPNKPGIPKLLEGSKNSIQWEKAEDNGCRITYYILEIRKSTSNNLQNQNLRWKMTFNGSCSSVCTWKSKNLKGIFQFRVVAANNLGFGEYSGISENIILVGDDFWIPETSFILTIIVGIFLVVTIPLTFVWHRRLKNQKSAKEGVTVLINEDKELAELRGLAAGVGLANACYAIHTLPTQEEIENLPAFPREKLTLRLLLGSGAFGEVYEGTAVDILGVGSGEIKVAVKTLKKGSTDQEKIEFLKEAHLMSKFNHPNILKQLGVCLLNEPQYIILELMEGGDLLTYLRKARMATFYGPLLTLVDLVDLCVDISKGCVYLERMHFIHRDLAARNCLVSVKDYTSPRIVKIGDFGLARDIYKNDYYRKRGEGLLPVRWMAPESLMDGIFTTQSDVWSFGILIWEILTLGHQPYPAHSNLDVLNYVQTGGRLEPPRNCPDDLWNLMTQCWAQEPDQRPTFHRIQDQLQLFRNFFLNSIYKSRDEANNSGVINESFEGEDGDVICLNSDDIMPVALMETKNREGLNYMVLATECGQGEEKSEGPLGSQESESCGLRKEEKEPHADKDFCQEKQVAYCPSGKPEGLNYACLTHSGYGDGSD", "assay": "Kinase Profiler", "type": "biochemical", "experimental": "(§2) Blood cell counts, kinase profiler, safety screen, bacterial cytotoxicity, Ames, micronucleus assays were performed by the company Eurofins (France). The kinase profiler was performed by the company Eurofins (Discovery, Panlab and Cerep)."}, "TSSK1(h)": {"target": "TSSK1(h) (Homo sapiens, UniProt Q9BXA7)", "sequence (Q9BXA7 whole entry)": "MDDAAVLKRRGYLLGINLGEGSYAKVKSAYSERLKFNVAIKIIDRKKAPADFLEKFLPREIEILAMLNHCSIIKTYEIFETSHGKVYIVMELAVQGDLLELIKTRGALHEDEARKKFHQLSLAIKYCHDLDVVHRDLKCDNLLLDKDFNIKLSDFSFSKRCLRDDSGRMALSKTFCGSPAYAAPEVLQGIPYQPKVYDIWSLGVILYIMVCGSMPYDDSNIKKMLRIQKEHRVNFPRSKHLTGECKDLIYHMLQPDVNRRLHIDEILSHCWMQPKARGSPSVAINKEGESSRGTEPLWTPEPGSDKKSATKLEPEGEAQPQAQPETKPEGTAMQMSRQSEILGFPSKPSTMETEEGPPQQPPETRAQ", "assay": "Kinase Profiler", "type": "biochemical", "experimental": "as §1"}, "TrkA(h)": {"target": "TrkA(h) (Homo sapiens, UniProt P04629)", "assay": "Kinase Profiler", "type": "biochemical", "experimental": "as §1"}, "ALK1(h)": {"target": "ALK1(h) (Homo sapiens, UniProt P37023)", "sequence (P37023 22-503)": "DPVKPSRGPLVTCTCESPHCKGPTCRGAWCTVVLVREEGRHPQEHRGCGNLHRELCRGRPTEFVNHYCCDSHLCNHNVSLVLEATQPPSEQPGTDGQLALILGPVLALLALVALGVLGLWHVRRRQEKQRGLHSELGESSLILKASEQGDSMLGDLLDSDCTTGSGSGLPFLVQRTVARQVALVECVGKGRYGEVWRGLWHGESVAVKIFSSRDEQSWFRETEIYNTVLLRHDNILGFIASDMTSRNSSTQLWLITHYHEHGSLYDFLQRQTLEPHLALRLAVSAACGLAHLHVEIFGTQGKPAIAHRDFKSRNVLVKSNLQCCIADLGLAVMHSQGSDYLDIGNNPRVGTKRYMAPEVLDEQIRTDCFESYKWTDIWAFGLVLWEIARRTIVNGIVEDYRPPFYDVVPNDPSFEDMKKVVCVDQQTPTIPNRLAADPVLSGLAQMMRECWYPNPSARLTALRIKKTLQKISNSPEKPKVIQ", "assay": "Kinase Profiler", "type": "biochemical", "experimental": "as §1"}, "PI3K (p110a/p65a)(m)": {"test_system": "PI3K (p110a/p65a)(m)", "assay": "Kinase Profiler", "type": "biochemical, mouse", "experimental": "as §2"}, "STK33(h)": {"target": "STK33(h) (Homo sapiens, UniProt Q9BYT3)", "assay": "Kinase Profiler", "type": "biochemical", "experimental": "as §1"}, "Transporter, GABA": {"test_system": "Transporter, GABA", "assay": "Safety screen", "type": "binding, rat", "experimental": "Blood cell counts, kinase profiler, safety screen, bacterial cytotoxicity, Ames, micronucleus assays were performed by the company Eurofins (France)."}, "DYRK3(h)": {"target": "DYRK3(h) (Homo sapiens, UniProt O43781)", "assay": "Kinase Profiler", "type": "biochemical", "experimental": "as §1"}, "Met(Y1248D)(h)": {"target": "Met(Y1248D)(h) (Homo sapiens, UniProt P08581, Y1230D)", "assay": "Kinase Profiler", "type": "biochemical", "experimental": "as §1"}, "KDR(h)": {"target": "KDR(h) (Homo sapiens, UniProt P35968)", "assay": "Kinase Profiler", "type": "biochemical", "experimental": "as §1"}, "Arg(m)": {"target": "Arg(m) (Mus musculus, UniProt Q4JIM5)", "assay": "Kinase Profiler", "type": "biochemical", "experimental": "as §2"}, "RIPK2(h)": {"target": "RIPK2(h) (Homo sapiens, UniProt O43353)", "assay": "Kinase Profiler", "type": "biochemical", "experimental": "as §1"}, "Lyn(h)": {"target": "Lyn(h) (Homo sapiens, UniProt P07948)", "assay": "Kinase Profiler", "type": "biochemical", "experimental": "as §1"}, "PASK(h)": {"target": "PASK(h) (Homo sapiens, UniProt Q96RG2)", "assay": "Kinase Profiler", "type": "biochemical", "experimental": "as §1"}, "[1]": {"target": "PI3K (p110a(E542K)/p85a)(m) (Mus musculus, UniProt P42337, E542K)", "assay": "Kinase Profiler", "type": "biochemical", "experimental": "as §1"}, "SRPK1(h)": {"target": "SRPK1(h) (Homo sapiens, UniProt Q96SB4)", "assay": "Kinase Profiler", "type": "biochemical", "experimental": "as §1"}, "Histamine H2": {"target": "Histamine H2 (Homo sapiens, UniProt P25021)", "sequence (P25021 whole entry)": "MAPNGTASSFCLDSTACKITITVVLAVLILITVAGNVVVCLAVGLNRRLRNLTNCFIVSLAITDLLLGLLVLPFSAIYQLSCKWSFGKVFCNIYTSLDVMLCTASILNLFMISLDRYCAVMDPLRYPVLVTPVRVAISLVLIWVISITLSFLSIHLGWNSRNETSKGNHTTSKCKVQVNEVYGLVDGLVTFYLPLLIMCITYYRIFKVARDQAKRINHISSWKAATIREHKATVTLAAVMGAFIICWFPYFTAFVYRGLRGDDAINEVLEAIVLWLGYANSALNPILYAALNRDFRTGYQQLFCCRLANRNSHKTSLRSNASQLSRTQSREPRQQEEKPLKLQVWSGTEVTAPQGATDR", "assay": "Safety screen", "type": "binding", "experimental": "as §2"}, "PKBα(h)": {"target": "PKBα(h) (Homo sapiens, UniProt P31749)", "assay": "Kinase Profiler", "type": "biochemical", "experimental": "as §1"}, "Pyk2(h)": {"target": "Pyk2(h) (Homo sapiens, UniProt Q14289)", "assay": "Kinase Profiler", "type": "biochemical", "experimental": "as §1"}, "PKD3(h)": {"target": "PKD3(h) (Homo sapiens, UniProt O94806)", "assay": "Kinase Profiler", "type": "biochemical", "experimental": "as §1"}, "CDK9/cyclin T1(h)": {"target": "CDK9/cyclin T1(h) (Homo sapiens, UniProt P50750)", "assay": "Kinase Profiler", "type": "biochemical", "experimental": "as §2"}, "MAP4K5(h)": {"target": "MAP4K5(h) (Homo sapiens, UniProt Q9Y4K4)", "assay": "Kinase Profiler", "type": "biochemical", "experimental": "as §1"}, "Potassium Channel hERG": {"target": "Potassium Channel hERG (Homo sapiens, UniProt Q12809)", "sequence (Q12809 whole entry)": "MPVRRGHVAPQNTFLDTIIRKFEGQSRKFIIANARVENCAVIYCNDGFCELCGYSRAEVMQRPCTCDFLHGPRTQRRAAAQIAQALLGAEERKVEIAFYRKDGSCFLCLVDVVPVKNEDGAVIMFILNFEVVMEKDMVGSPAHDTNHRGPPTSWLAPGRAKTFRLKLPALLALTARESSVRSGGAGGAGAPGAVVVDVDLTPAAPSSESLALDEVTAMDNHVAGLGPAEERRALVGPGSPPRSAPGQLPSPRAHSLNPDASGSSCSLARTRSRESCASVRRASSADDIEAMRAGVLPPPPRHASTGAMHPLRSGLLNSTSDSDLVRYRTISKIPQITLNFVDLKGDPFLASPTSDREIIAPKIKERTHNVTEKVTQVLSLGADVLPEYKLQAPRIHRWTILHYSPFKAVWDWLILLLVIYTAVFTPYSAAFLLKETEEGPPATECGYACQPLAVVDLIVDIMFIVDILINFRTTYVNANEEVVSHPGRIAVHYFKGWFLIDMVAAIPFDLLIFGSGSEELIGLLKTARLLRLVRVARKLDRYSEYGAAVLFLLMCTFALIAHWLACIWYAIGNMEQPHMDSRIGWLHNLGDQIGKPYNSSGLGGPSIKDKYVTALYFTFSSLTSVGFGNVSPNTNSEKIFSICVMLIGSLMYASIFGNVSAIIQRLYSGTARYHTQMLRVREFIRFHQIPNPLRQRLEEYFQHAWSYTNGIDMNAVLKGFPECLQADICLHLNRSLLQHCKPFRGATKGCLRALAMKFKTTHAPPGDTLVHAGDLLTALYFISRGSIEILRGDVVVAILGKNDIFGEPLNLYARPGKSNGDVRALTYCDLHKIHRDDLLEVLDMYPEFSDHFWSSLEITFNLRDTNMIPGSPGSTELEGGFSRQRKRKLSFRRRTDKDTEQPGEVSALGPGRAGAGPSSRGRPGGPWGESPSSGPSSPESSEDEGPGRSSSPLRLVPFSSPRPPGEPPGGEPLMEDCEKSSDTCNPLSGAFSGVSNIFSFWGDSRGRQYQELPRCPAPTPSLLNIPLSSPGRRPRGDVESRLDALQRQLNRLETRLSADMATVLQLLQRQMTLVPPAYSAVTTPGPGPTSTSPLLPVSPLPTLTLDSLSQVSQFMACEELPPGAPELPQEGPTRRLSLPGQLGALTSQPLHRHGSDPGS", "assay": "Safety screen", "type": "binding", "experimental": "as §2"}, "CHK2(I157T)(h)": {"target": "CHK2(I157T)(h) (Homo sapiens, UniProt O96017, I157T)", "assay": "Kinase Profiler", "type": "biochemical", "experimental": "as §1"}, "PAK6(h)": {"target": "PAK6(h) (Homo sapiens, UniProt Q9NQU5)", "assay": "Kinase Profiler", "type": "biochemical", "experimental": "as §1"}, "4T1 tumor cells": {"test_system": "4T1 tumor cells", "assay": "Syngeneic breast cancer model", "type": "in vivo, mouse", "settings": "BALB/c mice", "protocol": "Figure 6 A41 decreases metastasis of TNBC cells in vivo (A) Representative images of luciferase bioluminescence intensities (BLI) in whole body, legs, and ovaries/uterus 4 weeks after resection of MD1-MB-468 Luc tumor in NMRI nude mice not treated (control) and treated with A41 (25 mg/kg/day, intraperitoneally for 4 weeks). (B) Metastasis frequency quantification based on ex vivo BLI measurements in indicated organs from control (black bars) and A41-treated mice 4 weeks after tumor resection (white bars) (N = 10–15 mice; ∗p < 0.05 vs. controls). (C) BLI quantification in legs and ovaries/uterus from control (black squares) and A41-treated (white squares) NMRI nude mice 4 weeks after tumor resection (N = 10–15 mice; ∗p < 0.05 vs. controls). (D) Cumulative proportion of immunocompetent control (red) and A41-treated mice (blue) displaying regrowth of the primary tumor after its resection. (E) Metastasis frequency quantified from ex vivo BLI measurements in leg bones, lungs, kidneys, and ovaries/uterus from immunocompetent control (black bar) and A41-treated (white bar) mice (N = 10 mice; ∗p < 0.05 vs. control). (F) Survival curve of immunocompetent control (red) and A41-treated mice (blue) after primary tumor resection (day 0).\nTo circumvent this limitation and evaluate if the immune system could affect the anti-metastatic property of A41, we evaluated its effect in a syngeneic model. We injected murine 4T1 tumor cells into the mammary fat pad of immunocompetent BALB/c mice."}, "CLK4(h)": {"target": "CLK4(h) (Homo sapiens, UniProt Q9HAZ1)", "assay": "Kinase Profiler", "type": "biochemical", "experimental": "as §1"}, "Yes(h)": {"target": "Yes(h) (Homo sapiens, UniProt P07947)", "assay": "Kinase Profiler", "type": "biochemical", "experimental": "as §1"}, "ALK4(h)": {"target": "ALK4(h) (Homo sapiens, UniProt P36896)", "assay": "Kinase Profiler", "type": "biochemical", "experimental": "as §1"}, "Mer(h)": {"target": "Mer(h) (Homo sapiens, UniProt Q12866)", "assay": "Kinase Profiler", "type": "biochemical", "experimental": "as §1"}, "TGFBR1(h)": {"target": "TGFBR1(h) (Homo sapiens, UniProt P36897)", "assay": "Kinase Profiler", "type": "biochemical", "experimental": "as §2"}, "CK1γ2(h)": {"target": "CK1γ2(h) (Homo sapiens, UniProt P78368)", "sequence (P78368 whole entry)": "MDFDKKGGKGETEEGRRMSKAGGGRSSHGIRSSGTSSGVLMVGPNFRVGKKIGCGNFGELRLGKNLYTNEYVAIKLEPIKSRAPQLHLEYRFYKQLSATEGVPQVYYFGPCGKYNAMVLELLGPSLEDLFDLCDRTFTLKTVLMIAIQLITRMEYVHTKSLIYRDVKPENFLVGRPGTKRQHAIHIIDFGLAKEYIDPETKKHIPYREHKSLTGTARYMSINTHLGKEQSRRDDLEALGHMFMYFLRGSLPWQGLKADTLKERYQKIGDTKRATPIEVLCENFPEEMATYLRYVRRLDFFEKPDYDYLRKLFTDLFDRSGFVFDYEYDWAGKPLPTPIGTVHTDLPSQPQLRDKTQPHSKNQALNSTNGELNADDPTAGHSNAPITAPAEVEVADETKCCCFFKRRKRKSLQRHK", "assay": "Kinase Profiler", "type": "biochemical", "experimental": "as §2"}}}
{"compound": "COc1ccc(OC)c(NS(=O)(=O)c2ccc(NC(=O)CCSc3ccc(C)cc3)cc2)c1", "note": "[Compound A41]", "values": [{"measurement": "Activity(%)", "setting": "DAPK1(h)", "result": 117, "unit": "%"}, {"measurement": "Activity(%)", "setting": "Ros(h)", "result": 139, "unit": "%"}, {"measurement": "Activity(%)", "setting": "TSSK1(h)", "result": 103, "unit": "%"}, {"measurement": "Activity(%)", "setting": "TrkA(h)", "result": 99, "unit": "%"}, {"measurement": "Activity(%)", "setting": "ALK1(h)", "result": 102, "unit": "%"}, {"measurement": "Activity(%)", "setting": "PI3K (p110a/p65a)(m)", "result": 100, "unit": "%"}, {"measurement": "Activity(%)", "setting": "STK33(h)", "result": 98, "unit": "%"}, {"measurement": "% inh.", "setting": "Transporter, GABA", "result": -4, "unit": "%"}, {"measurement": "Activity(%)", "setting": "DYRK3(h)", "result": 112, "unit": "%"}, {"measurement": "Activity(%)", "setting": "Met(Y1248D)(h)", "result": 118, "unit": "%"}, {"measurement": "Activity(%)", "setting": "KDR(h)", "result": 113, "unit": "%"}, {"measurement": "Activity(%)", "setting": "Arg(m)", "result": 109, "unit": "%"}, {"measurement": "Activity(%)", "setting": "RIPK2(h)", "result": 94, "unit": "%"}, {"measurement": "Activity(%)", "setting": "Lyn(h)", "result": 109, "unit": "%"}, {"measurement": "Activity(%)", "setting": "PASK(h)", "result": 97, "unit": "%"}, {"measurement": "Activity(%)", "setting": "[1]", "result": 99, "unit": "%"}, {"measurement": "Activity(%)", "setting": "SRPK1(h)", "result": 114, "unit": "%"}, {"measurement": "% inh.", "setting": "Histamine H2", "result": -14, "unit": "%"}, {"measurement": "Activity(%)", "setting": "PKBα(h)", "result": 108, "unit": "%"}, {"measurement": "Activity(%)", "setting": "Pyk2(h)", "result": 92, "unit": "%"}, {"measurement": "Activity(%)", "setting": "PKD3(h)", "result": 104, "unit": "%"}, {"measurement": "Activity(%)", "setting": "CDK9/cyclin T1(h)", "result": 92, "unit": "%"}, {"measurement": "Activity(%)", "setting": "MAP4K5(h)", "result": 102, "unit": "%"}, {"measurement": "% inh.", "setting": "Potassium Channel hERG", "result": 22, "unit": "%"}, {"measurement": "Activity(%)", "setting": "CHK2(I157T)(h)", "result": 112, "unit": "%"}, {"measurement": "Activity(%)", "setting": "PAK6(h)", "result": 99, "unit": "%"}, {"measurement": "frequency of primary tumor re-growth (mice with regrowth)", "setting": "4T1 tumor cells; 4 weeks post resection", "result": 40, "unit": "%"}, {"measurement": "survival rate", "setting": "4T1 tumor cells; 4 weeks post resection", "result": 80, "unit": "%"}, {"measurement": "metastasis frequency", "setting": "4T1 tumor cells; after primary tumor resection", "result": "significantly reduced metastasis frequency"}, {"measurement": "Activity(%)", "setting": "CLK4(h)", "result": 102, "unit": "%"}, {"measurement": "Activity(%)", "setting": "Yes(h)", "result": 110, "unit": "%"}, {"measurement": "Activity(%)", "setting": "ALK4(h)", "result": 101, "unit": "%"}, {"measurement": "Activity(%)", "setting": "Mer(h)", "result": 90, "unit": "%"}, {"measurement": "Activity(%)", "setting": "TGFBR1(h)", "result": 103, "unit": "%"}, {"measurement": "Activity(%)", "setting": "CK1γ2(h)", "result": 112, "unit": "%"}]}
